Assays:
[1] = Pharmacokinetics after intratracheal instillation; format: in vivo; conditions: mouse
Protocol: Female Balb/c mouse (20–25 g bodyweight) were purchased from Nofer Institute (Lodz, Poland). Animals were given 0.3 mg/kg or 1 mg/kg single dose of CPL302-253 by intratracheal instillation. The compound was suspended in 0.2% DMSO in saline. 5 animals per time-point were sacrificed 10 min, 30 min, 1 h, 2 h, 4 h, 7 h and 12 h after compound administration. The blood was collected by heart puncture to K2EDTA containing tubes and plasma samples were prepared by centrifugation. The Bronchoalveolar Lavage Fluid (BALF) was collected by flushing the lungs 2 times with 1 ml of saline. The lungs were homogenized in 10% DMSO solution in water. 3ml of the solution were used for 1 g of lung tissue. The samples were purified using acetonitrile and concentration of CPL302-253 was measured by LC-MS/MS with internal standard. The concentration of the compound is given per ml of plasma and BALF or g of lung tissue.
LC-MS analysis of PK samples was performed using 1290 Infinity II UPLC (Agilent) with 6460 Triple Quad MS (Agilent) in the positive mode and MRM mode. […] Samples were eluted using a timed, linear gradient from 10% B at 0.3 min to 95% B at 1.5 min, then back to 10% at 2.5 min. The column was equilibrated for up to 5 min. The flow rate was 0.4 mL/min. The injection volume was 5 μL. Calibration curve was prepared in the range from 1 ng/mL to 2000 ng/mL by spiking 45 μL of plasma with 5 μL of concentrated standard solution. All plasma based standard solutions and studied samples (50 μL) were subsequently extracted with 150 μL of acetonitrile containing donepezil as internal standard and centrifuged to provide supernatant ready for analysis.

PIK3CA(E545A) = target: T1, PIK3CA(E545A) (Homo sapiens, UniProt P42336, E545A); assay: KINOMEScan single concentration; format: binding; conditions: 1 μM
T1 construct: purchased Discoverex (KINOMEscan service)
Protocol: (§1) The inhibitor-kinase binding affinity was assessed in KINOMEscan™ assay (Discoverex) according to service provider’s protocol. In brief, in this binding assay the studied compound in solution is incubated with DNA-tagged kinase and kinase active-site directed ligand bound to the beads. The compound competes for binding to kinase with the immobilized ligand. After incubation beads are removed from the solution and kinase bound to ligand is quantified by qPCR. The strength of compound binding is determined based on its ability to block kinase-ligand binding. 11-point 3-fold serial dilution of CPL302-253 was used in order to determine its binding constants (Kd) against different isotypes of class I PI3K. The single concentration of CPL302-253 was used in order to determine its specificity in abroad panel of 468 human kinases. The measure of compounds affinity to each kinase in the panel was the percentage of kinase activity inhibition by tested ligand in comparison to the control.

PIK3CA(H1047L) = target: T2, PIK3CA(H1047L) (Homo sapiens, UniProt P42336, H1047L); assay: KINOMEScan single concentration; format: binding; conditions: 1 μM
T2 construct: purchased Discoverex (KINOMEscan service)
Protocol: as §1

PIK3CA(I800L) = target: T3, PIK3CA(I800L) (Homo sapiens, UniProt P42336, I800L); assay: KINOMEScan single concentration; format: binding; conditions: 1 μM
T3 construct: purchased Discoverex (KINOMEscan service)
Protocol: as §1

PIK3CA = target: T4, PIK3CA (Homo sapiens, UniProt P42336); assay: KINOMEScan single concentration; format: binding; conditions: 1 μM
T4 construct: purchased Discoverex (KINOMEscan service)
Protocol: as §1

PIK3CA(H1047Y) = target: T5, PIK3CA(H1047Y) (Homo sapiens, UniProt P42336, H1047Y); assay: KINOMEScan single concentration; format: binding; conditions: 1 μM
T5 construct: purchased Discoverex (KINOMEscan service)
Protocol: as §1

PIK3CA(E542K) = target: T6, PIK3CA(E542K) (Homo sapiens, UniProt P42336, E542K); assay: KINOMEScan single concentration; format: binding; conditions: 1 μM
T6 construct: purchased Discoverex (KINOMEscan service)
Protocol: as §1

PIK3CB = target: T7, PIK3CB (Homo sapiens, UniProt P42338); assay: KINOMEScan single concentration; format: binding; conditions: 1 μM
T7 construct: purchased Discoverex (KINOMEscan service)
Protocol: as §1

PIK3CA(M1043I) = target: T8, PIK3CA(M1043I) (Homo sapiens, UniProt P42336, M1043I); assay: KINOMEScan single concentration; format: binding; conditions: 1 μM
T8 construct: purchased Discoverex (KINOMEscan service)
Protocol: as §1

PIK3CD = target: T9, PIK3CD (Homo sapiens, UniProt O00329); assay: KINOMEScan single concentration; format: binding; conditions: 1 μM
T9 construct: purchased Discoverex (KINOMEscan service)
Protocol: as §1

MEK5 = target: T10, MEK5 (Homo sapiens, UniProt Q13163); assay: KINOMEScan single concentration; format: binding; conditions: 1 μM
T10 construct: purchased Discoverex (KINOMEscan service)
Protocol: as §1

ULK2 = target: T11, ULK2 (Homo sapiens, UniProt Q8IYT8); assay: KINOMEScan single concentration; format: binding; conditions: 1 μM
T11 construct: purchased Discoverex (KINOMEscan service)
Protocol: as §1

ABL1-nonphosphorylated = target: T12, ABL1-nonphosphorylated (Homo sapiens, UniProt P00519); assay: KINOMEScan single concentration; format: binding; conditions: 1 μM
T12 construct: purchased Discoverex (KINOMEscan service)
Protocol: as §1

PIK3CA(E545K) = target: T13, PIK3CA(E545K) (Homo sapiens, UniProt P42336, E545K); assay: KINOMEScan single concentration; format: binding; conditions: 1 μM
T13 construct: purchased Discoverex (KINOMEscan service)
Protocol: as §1

PIK3CG = target: T14, PIK3CG (Homo sapiens, UniProt P48736); assay: KINOMEScan single concentration; format: binding; conditions: 1 μM
T14 construct: purchased Discoverex (KINOMEscan service)
Protocol: as §1

PIK3CA(C420R) = target: T15, PIK3CA(C420R) (Homo sapiens, UniProt P42336, C420R); assay: KINOMEScan single concentration; format: binding; conditions: 1 μM
T15 construct: purchased Discoverex (KINOMEscan service)
Protocol: as §1

PIK3CA(Q546K) = target: T16, PIK3CA(Q546K) (Homo sapiens, UniProt P42336, Q546K); assay: KINOMEScan single concentration; format: binding; conditions: 1 μM
T16 construct: purchased Discoverex (KINOMEscan service)
Protocol: as §1

PI3Kγ = PI3Kγ (Homo sapiens, UniProt P48736); assay: ADP-Glo Kinase Assay; format: biochemical; parameters: purchased Merck Millipore
Protocol: (§2) The potency and selectivity of CPL302-253 against different isotypes of class I PI3K were assessed using ADP-Glo Kinase Assay (Promega) according to manufacturer’s protocol. PI3Kα, PI3Kβ, PI3Kδ, PI3Kγ were purchased from Merck Millipore. The inhibition of examined kinases activity was evaluated by measuring their ability to converse ATP to ADP in the presence of decreasing doses of tested compound (from 400 μM to 0,00004 μM). Kinases were mixed with 1 mM PIP2:PS substrate (Phosphoinositol-4,5-bisphosphate (PIP2) lipid vesicles with phosphoserine (PS), Thermofisher Scientific) and 30 μM ATP in an assay buffer (50 mM HEPES pH 7.5,50 mM NaCl, 3 mM MgCl2, 25 μg/ml BSA). The mixture was incubated in the dark for 1 h at 25°C (PI3Kα and PI3Kδ) or at 30°C (PI3Kβ, PI3Kγ). Next ADP-Glo reagent 1 was added to stop the reaction and remove any remaining ATP. The samples were incubated for 40 min at 25°C. Subsequently the ADP-Glo reagent 2 was added and reactions were incubated for 40 min at 25°C. Finally, luminescence was assessed and the IC50 was calculated.

PI3Kβ = PI3Kβ (Homo sapiens, UniProt P42338); assay: ADP-Glo Kinase Assay; format: biochemical; parameters: purchased Merck Millipore
Protocol: as §2

PI3Kγ, sequence (P48736 whole entry): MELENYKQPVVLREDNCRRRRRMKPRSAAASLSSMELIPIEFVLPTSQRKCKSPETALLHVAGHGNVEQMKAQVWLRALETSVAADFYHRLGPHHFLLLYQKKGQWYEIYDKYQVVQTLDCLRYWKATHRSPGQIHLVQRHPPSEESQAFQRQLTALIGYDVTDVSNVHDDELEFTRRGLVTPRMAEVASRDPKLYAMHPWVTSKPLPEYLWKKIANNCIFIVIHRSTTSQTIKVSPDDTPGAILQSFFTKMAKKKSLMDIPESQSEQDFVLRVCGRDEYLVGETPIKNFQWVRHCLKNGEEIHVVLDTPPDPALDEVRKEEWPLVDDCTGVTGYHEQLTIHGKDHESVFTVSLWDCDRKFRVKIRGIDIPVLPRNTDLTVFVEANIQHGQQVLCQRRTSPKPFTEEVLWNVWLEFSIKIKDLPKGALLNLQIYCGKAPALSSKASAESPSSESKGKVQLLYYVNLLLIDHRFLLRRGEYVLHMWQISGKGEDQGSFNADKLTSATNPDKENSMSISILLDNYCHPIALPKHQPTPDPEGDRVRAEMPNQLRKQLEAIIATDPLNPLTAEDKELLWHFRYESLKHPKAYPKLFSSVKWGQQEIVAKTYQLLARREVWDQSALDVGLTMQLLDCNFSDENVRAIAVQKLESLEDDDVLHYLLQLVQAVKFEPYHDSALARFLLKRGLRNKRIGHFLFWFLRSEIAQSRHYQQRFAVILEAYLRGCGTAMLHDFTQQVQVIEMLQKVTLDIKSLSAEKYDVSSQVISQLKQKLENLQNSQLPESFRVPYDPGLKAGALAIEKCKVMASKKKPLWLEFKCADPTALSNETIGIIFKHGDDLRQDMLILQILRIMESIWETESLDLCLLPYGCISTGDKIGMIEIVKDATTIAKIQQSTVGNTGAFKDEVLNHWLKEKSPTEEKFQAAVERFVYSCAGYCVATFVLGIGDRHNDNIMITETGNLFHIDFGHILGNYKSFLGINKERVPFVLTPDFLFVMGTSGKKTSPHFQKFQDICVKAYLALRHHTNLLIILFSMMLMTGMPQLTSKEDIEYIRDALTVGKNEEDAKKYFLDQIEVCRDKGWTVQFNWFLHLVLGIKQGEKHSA
PI3Kβ, sequence (P42338 whole entry): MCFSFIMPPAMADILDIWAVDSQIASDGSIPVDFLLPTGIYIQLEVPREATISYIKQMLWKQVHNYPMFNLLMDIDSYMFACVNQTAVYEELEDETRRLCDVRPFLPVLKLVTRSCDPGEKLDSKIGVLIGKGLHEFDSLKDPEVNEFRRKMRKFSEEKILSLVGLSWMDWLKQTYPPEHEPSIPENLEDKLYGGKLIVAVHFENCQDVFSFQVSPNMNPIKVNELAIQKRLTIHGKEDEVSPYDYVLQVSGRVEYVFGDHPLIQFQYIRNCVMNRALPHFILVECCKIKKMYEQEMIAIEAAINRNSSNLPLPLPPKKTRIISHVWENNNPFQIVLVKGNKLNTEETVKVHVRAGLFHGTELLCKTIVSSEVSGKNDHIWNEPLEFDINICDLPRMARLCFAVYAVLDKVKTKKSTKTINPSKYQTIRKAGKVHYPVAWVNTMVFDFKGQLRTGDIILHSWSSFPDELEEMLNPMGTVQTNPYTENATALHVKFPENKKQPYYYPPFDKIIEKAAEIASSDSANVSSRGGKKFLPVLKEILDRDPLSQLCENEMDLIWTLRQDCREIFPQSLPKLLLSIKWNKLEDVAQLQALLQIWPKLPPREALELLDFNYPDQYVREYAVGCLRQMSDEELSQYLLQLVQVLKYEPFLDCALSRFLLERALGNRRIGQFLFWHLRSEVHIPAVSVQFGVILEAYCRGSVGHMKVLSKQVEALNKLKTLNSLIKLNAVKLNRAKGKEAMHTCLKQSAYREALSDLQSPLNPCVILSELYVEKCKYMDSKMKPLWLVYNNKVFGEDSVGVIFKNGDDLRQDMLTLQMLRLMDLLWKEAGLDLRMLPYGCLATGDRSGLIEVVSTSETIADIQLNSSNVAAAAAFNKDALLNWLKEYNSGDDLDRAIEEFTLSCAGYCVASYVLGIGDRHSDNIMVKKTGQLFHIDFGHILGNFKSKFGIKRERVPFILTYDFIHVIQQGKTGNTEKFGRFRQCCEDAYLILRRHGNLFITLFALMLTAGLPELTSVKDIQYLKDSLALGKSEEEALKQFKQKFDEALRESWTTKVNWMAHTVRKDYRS
PI3Kβ, sequence (P27986 whole entry partner): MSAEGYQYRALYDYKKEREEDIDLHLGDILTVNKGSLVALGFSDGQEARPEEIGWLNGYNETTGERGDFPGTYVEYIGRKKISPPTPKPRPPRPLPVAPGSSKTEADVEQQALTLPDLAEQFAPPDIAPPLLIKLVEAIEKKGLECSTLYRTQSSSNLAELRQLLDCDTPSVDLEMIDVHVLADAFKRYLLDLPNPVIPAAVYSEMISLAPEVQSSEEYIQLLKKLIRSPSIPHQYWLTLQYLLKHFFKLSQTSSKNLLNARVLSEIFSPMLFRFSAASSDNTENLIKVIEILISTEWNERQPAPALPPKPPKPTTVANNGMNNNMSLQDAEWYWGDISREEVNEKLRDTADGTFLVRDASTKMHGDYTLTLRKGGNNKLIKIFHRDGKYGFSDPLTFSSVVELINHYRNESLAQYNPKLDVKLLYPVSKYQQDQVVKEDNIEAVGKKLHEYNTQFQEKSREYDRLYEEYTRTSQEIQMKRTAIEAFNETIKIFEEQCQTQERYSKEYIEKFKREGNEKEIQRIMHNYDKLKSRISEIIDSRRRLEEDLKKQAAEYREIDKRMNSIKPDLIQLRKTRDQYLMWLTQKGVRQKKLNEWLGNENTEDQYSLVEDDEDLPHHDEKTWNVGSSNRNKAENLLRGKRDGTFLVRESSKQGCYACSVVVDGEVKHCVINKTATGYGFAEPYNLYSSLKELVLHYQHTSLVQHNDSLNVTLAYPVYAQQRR
T1 sequence (P42336 whole entry E545A): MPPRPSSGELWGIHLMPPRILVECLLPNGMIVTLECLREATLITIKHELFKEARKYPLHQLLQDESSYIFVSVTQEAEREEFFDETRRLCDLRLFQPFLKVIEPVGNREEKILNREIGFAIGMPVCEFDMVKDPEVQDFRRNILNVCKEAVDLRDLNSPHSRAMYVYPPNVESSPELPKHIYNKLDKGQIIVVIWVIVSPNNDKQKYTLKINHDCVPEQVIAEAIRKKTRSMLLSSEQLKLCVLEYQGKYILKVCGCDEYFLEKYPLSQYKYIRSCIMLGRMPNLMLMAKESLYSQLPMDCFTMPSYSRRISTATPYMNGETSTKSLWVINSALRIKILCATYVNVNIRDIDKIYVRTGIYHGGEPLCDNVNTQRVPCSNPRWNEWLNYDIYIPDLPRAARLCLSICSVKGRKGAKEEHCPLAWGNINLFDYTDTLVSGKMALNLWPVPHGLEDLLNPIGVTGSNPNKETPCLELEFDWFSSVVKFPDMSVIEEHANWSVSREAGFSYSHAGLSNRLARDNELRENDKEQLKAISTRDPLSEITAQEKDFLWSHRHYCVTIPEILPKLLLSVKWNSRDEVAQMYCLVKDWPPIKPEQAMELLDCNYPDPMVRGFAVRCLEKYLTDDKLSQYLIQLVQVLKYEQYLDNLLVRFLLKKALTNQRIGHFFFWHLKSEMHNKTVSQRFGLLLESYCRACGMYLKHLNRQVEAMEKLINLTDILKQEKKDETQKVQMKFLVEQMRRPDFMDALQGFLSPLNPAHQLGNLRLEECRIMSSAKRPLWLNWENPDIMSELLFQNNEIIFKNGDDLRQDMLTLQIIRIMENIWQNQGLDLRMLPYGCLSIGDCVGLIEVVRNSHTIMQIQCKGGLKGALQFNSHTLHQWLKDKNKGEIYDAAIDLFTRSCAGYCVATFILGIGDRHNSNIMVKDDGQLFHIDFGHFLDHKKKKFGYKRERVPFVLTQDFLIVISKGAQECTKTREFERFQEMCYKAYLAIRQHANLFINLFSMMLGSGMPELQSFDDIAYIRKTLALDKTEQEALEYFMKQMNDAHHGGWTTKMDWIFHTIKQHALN
T3 sequence (P42336 whole entry I800L): as the sequence (P42336 whole entry E545A) above, with A545E, I800L counted along it
T6 sequence (P42336 whole entry E542K): as the sequence (P42336 whole entry E545A) above, with E542K, A545E counted along it
T2 sequence (P42336 whole entry H1047L): as the sequence (P42336 whole entry E545A) above, with A545E, H1047L counted along it
T4 sequence (P42336 whole entry): as the sequence (P42336 whole entry E545A) above, with A545E counted along it
T13 sequence (P42336 whole entry E545K): as the sequence (P42336 whole entry E545A) above, with A545K counted along it
T15 sequence (P42336 whole entry C420R): as the sequence (P42336 whole entry E545A) above, with C420R, A545E counted along it
T8 sequence (P42336 whole entry M1043I): as the sequence (P42336 whole entry E545A) above, with A545E, M1043I counted along it
T10 sequence (Q13163 whole entry): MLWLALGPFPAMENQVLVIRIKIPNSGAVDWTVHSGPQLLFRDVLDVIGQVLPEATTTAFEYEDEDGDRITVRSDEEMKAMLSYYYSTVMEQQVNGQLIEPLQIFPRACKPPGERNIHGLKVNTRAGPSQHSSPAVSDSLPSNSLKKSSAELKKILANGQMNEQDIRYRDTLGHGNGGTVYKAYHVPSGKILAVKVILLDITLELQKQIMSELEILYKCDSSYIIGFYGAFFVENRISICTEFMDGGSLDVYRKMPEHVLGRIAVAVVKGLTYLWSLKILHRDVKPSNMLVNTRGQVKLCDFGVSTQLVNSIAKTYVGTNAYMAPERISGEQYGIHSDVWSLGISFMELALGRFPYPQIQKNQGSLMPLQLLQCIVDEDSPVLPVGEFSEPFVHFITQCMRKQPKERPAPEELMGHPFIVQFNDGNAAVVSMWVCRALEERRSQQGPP
T14 sequence (P48736 whole entry): as the sequence (P48736 whole entry) above
T7 sequence (P42338 whole entry): as the sequence (P42338 whole entry) above
T5 sequence (P42336 whole entry H1047Y): as the sequence (P42336 whole entry E545A) above, with A545E, H1047Y counted along it
T16 sequence (P42336 whole entry Q546K): as the sequence (P42336 whole entry E545A) above, with A545E, Q546K counted along it

CC(C)(C)N1CCN(Cc2cc3nc(-c4cncc5[nH]ccc45)cc(N4CCOCC4)n3n2)CC1 [CPL302-253]
concentration in Plasma, single animals ([1]; 0.3 mg/kg intratracheal, time 2 h): 16.45
concentration in the blood compared with the lungs ([1]; in vivo): two orders of magnitude lower
distribution after intratracheal administration ([1]; in vivo): exclusively accumulated in the lung tissue and BAL with minor penetration to the circulation
Remaining binding (%) (PIK3CA(E545A)): 45%
Remaining binding (%) (PIK3CA(H1047L)): 92%
Remaining binding (%) (PIK3CA(I800L)): 44%
Remaining binding (%) (PIK3CA): 96%
Remaining binding (%) (PIK3CA(H1047Y)): 0%
Remaining binding (%) (PIK3CA(E542K)): 82%
Remaining binding (%) (PIK3CB): 42%
Remaining binding (%) (PIK3CA(M1043I)): 100%
Remaining binding (%) (PIK3CD): 1.1%
Remaining binding (%) (MEK5): 35%
Remaining binding (%) (ULK2): 33%
Remaining binding (%) (ABL1-nonphosphorylated): 36%
Remaining binding (%) (PIK3CA(E545K)): 54%
Remaining binding (%) (PIK3CG): 94%
Remaining binding (%) (PIK3CA(C420R)): 12%
Remaining binding (%) (PIK3CA(Q546K)): 99%
IC50 (PI3Kγ): 45.4 µM
Ratio to δ (PI3Kγ; IC50 of isoform γ to δ): 3725
IC50 (PI3Kβ): 9.58 µM
Ratio to δ (PI3Kβ; IC50 of isoform β to δ): 785
